Among the test systems are ACHN; SF-539; SK-MEL-5; SNB-75; NCI-H226; SN12C; IGROV-1; SK-MEL-28; Malme-3M; DU-145; MDA-MB-231; MCF7; U-251; COLO 205; RPMI-8226; SR; K562; SNB-19; UACC-257.
Common to all, as to assay: growth of human tumour cells (NCI), 48 h

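Following 48 hours of exposure in 96-well plates, responses at five concentrations were used to interpolate endpoints linearly. GI50 is the concentration that inhibits growth by half.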 Active and inactive are the calls of the source. Rule as the data show it: active = GI50 up to about 1.1 µM and inactive = higher.

The record followed here is ChEMBL document CHEMBL1201862, “PubChem BioAssay data set” (2004).

`COc1ccccc1C1c2cc3c(cc2OC2(OC)COC(=O)C12)OCO3` (stereo not given): the GI50 with ACHN is 22.2 µM (inactive); in the assay on SF-539 it was 12.3 µM (inactive); in the assay with SK-MEL-5 it was 7.19 µM (inactive); in the assay on SNB-75, 7.16 µM (inactive); in the assay on NCI-H226, 34.8 µM (inactive); in the assay with SN12C, 18.7 µM (inactive). Also, the GI50 was 13.1 µM (inactive) with IGROV-1; 7.53 µM (inactive) in the assay on SK-MEL-28; 15.2 µM (inactive) in the assay with Malme-3M; 20.4 µM (inactive) with DU-145; 18.2 µM (inactive) with MDA-MB-231; 10.3 µM (inactive) in the assay with MCF7. The GI50 was 14.2 µM (inactive) in the assay on U-251; 6.56 µM (inactive) with COLO 205; 8.07 µM (inactive) in the assay on RPMI-8226; 3.8 µM (inactive) with SR; 5.22 µM (inactive) in the assay with K562; 21.2 µM (inactive) in the assay on SNB-19. In the assay on UACC-257, the GI50 was 19.7 µM (inactive).

With `CN1CCCC(OC(=O)c2cc3cc(CCl)ccc3oc2=O)C1` (stereo not given), the GI50 is 23.3 µM (inactive) in the assay with ACHN; 27 µM (inactive) in the assay with SF-539; 17.3 µM (inactive) in the assay on SK-MEL-5; 22.2 µM (inactive) in the assay with SNB-75; 23.9 µM (inactive) in the assay on NCI-H226; 20.9 µM (inactive) in the assay with SN12C. Further, the GI50 in the assay with IGROV-1 is 28.6 µM (inactive); in the assay on SK-MEL-28, 19.5 µM (inactive); in the assay with Malme-3M it was 17.6 µM (inactive); with DU-145, 29.9 µM (inactive); with MDA-MB-231 it was 21 µM (inactive); in the assay on MCF7, 20.4 µM (inactive). Moreover, the GI50 was 14.9 µM (inactive) with U-251; 17.2 µM (inactive) in the assay with COLO 205; 29.4 µM (inactive) in the assay on RPMI-8226; 21.9 µM (inactive) in the assay on SR; 27.9 µM (inactive) with K562; 27.7 µM (inactive) in the assay with SNB-19. Further, the GI50 in the assay on UACC-257 is 18.1 µM (inactive).

As to `c1ccc(C2=Nn3c(CCCCCCCCc4nnc5n4N=C(c4ccccc4)CS5)nnc3SC2)cc1`, the GI50 in the assay on ACHN was 40.6 µM (inactive); in the assay on SF-539, 3.45 µM (inactive); with SK-MEL-5, > 100 µM (inactive); in the assay on SNB-75, 14.5 µM (inactive); in the assay with NCI-H226, 72.1 µM (inactive); with SN12C, > 88.1 µM (inactive). The GI50 in the assay with IGROV-1 was > 100 µM (inactive); with SK-MEL-28 it was > 100 µM (inactive); in the assay on Malme-3M, 28.2 µM (inactive); in the assay with DU-145, > 100 µM (inactive); in the assay on MDA-MB-231, 22.9 µM (inactive); with MCF7, > 100 µM (inactive). Besides, the GI50 with U-251 was 15.6 µM (inactive); in the assay with COLO 205, > 100 µM (inactive); with RPMI-8226 it was > 100 µM (inactive); in the assay with SR it was > 68.5 µM (inactive); with K562 it was 33.3 µM (inactive); with SNB-19, 18.4 µM (inactive). The GI50 in the assay on UACC-257 is > 100 µM (inactive).

For the molecule `COc1cccc(CCn2c(N)c(-c3ccccc3)c3ccc([N+](=O)[O-])cc3c2=O)c1`, the GI50 in the assay on ACHN is 5.25 µM (inactive); with SF-539, 2.51 µM (inactive); in the assay with SK-MEL-5, 5.93 µM (inactive); in the assay on SNB-75 it was 2.99 µM (inactive); in the assay on NCI-H226 it was 3.05 µM (inactive); with SN12C it was 0.664 µM (active). Besides, the GI50 in the assay on IGROV-1 was 5.6 µM (inactive); in the assay with SK-MEL-28, 17.5 µM (inactive); in the assay with Malme-3M, 14.2 µM (inactive); in the assay on DU-145, 13.7 µM (inactive); in the assay on MDA-MB-231, 8.45 µM (inactive); in the assay on MCF7, 3.46 µM (inactive). Besides, the GI50 in the assay with U-251 was 9.29 µM (inactive); in the assay with COLO 205, 2.16 µM (inactive); in the assay with RPMI-8226, 0.499 µM (active); with SR it was 6.61 µM (inactive); in the assay on K562, 1.02 µM (active); in the assay with SNB-19, 16 µM (inactive). Further, the GI50 in the assay with UACC-257 was 17.3 µM (inactive).

As for `CCOC(=O)/C=C\[C@H]1OC(C)(C)O[C@H]1[C@H](O)[C@H]1COC(C)(C)O1`, the GI50 in the assay with ACHN is 16.3 µM (inactive); with SF-539 it was 17.7 µM (inactive); with SK-MEL-5 it was 18.2 µM (inactive); with SNB-75, 2.57 µM (inactive); with NCI-H226, > 100 µM (inactive); in the assay on SN12C it was 17.4 µM (inactive). The GI50 is 19.5 µM (inactive) in the assay on IGROV-1; 17.7 µM (inactive) in the assay with SK-MEL-28; 18.9 µM (inactive) with Malme-3M; > 100 µM (inactive) in the assay on DU-145; 17.6 µM (inactive) with MDA-MB-231; 20.8 µM (inactive) in the assay on MCF7. Also, the GI50 in the assay on U-251 is 17.7 µM (inactive); in the assay on COLO 205, 15.8 µM (inactive); in the assay on RPMI-8226, 19.8 µM (inactive); in the assay on SR, 17.1 µM (inactive); with K562 it was 10.4 µM (inactive); in the assay on SNB-19, > 100 µM (inactive). Moreover, in the assay with UACC-257, the GI50 is 22.6 µM (inactive).

On to `CN(C)CCCOC(=O)C(O)(Cc1ccccc1)C1CC1` (stereo not given), for which the GI50 in the assay on ACHN was > 100 µM (inactive); in the assay with SF-539 it was > 100 µM (inactive); with SK-MEL-5 it was > 100 µM (inactive); in the assay with SNB-75, 79.8 µM (inactive); with NCI-H226, > 100 µM (inactive); in the assay on SN12C, > 100 µM (inactive). For the same molecule, the GI50 with IGROV-1, with SK-MEL-28, in the assay with Malme-3M, in the assay with DU-145, with MDA-MB-231 and in the assay with MCF7 was > 100 µM (inactive) each time. In addition, the GI50 in the assay on U-251, with COLO 205, in the assay with RPMI-8226, with SR, with K562 and in the assay with SNB-19 was > 100 µM (inactive) each time. Also, the GI50 in the assay on UACC-257 is > 100 µM (inactive).

Take `Cc1ccc(S(=O)(=O)N(CC(O)COc2ccccc2)c2ccccc2Cl)cc1` (stereo not given): the GI50 is 16.3 µM (inactive) in the assay with ACHN; 18 µM (inactive) in the assay on SF-539; 14.7 µM (inactive) in the assay with SK-MEL-5; 22.3 µM (inactive) in the assay with SNB-75; 14.9 µM (inactive) with NCI-H226; 15 µM (inactive) in the assay with SN12C. Also, the GI50 in the assay with IGROV-1 is 12.5 µM (inactive); with SK-MEL-28, 15.6 µM (inactive); in the assay with Malme-3M, 14.5 µM (inactive); in the assay with DU-145, 28.8 µM (inactive); in the assay on MDA-MB-231, 14.6 µM (inactive); with MCF7, 20.5 µM (inactive). Further, the GI50 in the assay on U-251 was 14.4 µM (inactive); in the assay with COLO 205, 16.8 µM (inactive); with RPMI-8226 it was 11.5 µM (inactive); in the assay with SR it was 13.9 µM (inactive); in the assay with K562, 11.6 µM (inactive); in the assay with SNB-19, 18.2 µM (inactive). In addition, in the assay with UACC-257, the GI50 was 14.7 µM (inactive).

On to `O=C1C=CC(=O)c2c(O)c(N(CCCl)CCCl)c(Cl)c(O)c21`, for which the GI50 is 4.13 µM (inactive) with ACHN; 5.24 µM (inactive) in the assay on SF-539; 4.59 µM (inactive) in the assay on SK-MEL-5; 7.8 µM (inactive) in the assay on SNB-75; > 9.66 µM (inactive) in the assay on NCI-H226; > 6.68 µM (inactive) in the assay with SN12C. Further, the GI50 was > 6.68 µM (inactive) in the assay on IGROV-1; > 5.6 µM (inactive) in the assay on SK-MEL-28; 4.37 µM (inactive) in the assay with Malme-3M; > 8.63 µM (inactive) in the assay on DU-145; 4.56 µM (inactive) in the assay on MDA-MB-231; 5.07 µM (inactive) with MCF7. In addition, the GI50 with U-251 is 5.73 µM (inactive); in the assay with COLO 205, 3.94 µM (inactive); with RPMI-8226 it was > 8.39 µM (inactive); with SR it was 4.51 µM (inactive); with K562 it was 4.79 µM (inactive); in the assay with SNB-19, > 10 µM (inactive). The GI50 in the assay with UACC-257 is 3.3 µM (inactive).

`COC(=O)C1Cc2ccc(C)cc2C1=O` (stereo not given): the GI50 with ACHN was > 100 µM (inactive); in the assay on SF-539 it was > 100 µM (inactive); with SK-MEL-5, 50.7 µM (inactive); with SNB-75, > 100 µM (inactive); in the assay with NCI-H226, > 100 µM (inactive); in the assay on SN12C, > 100 µM (inactive). The GI50 in the assay on IGROV-1, in the assay on SK-MEL-28, with Malme-3M, in the assay on DU-145, in the assay on MDA-MB-231 and in the assay with MCF7 was > 100 µM (inactive) throughout. The GI50 with U-251, with COLO 205, in the assay on RPMI-8226, in the assay on SR, with K562 and in the assay on SNB-19 was > 100 µM (inactive) each time. Also, the GI50 in the assay with UACC-257 was > 100 µM (inactive).

Regarding `CC(C)OC(=O)c1cc(NC(=S)OC(C)C)ccc1Cl`, the GI50 in the assay on ACHN is 22.8 µM (inactive); in the assay on SF-539, 14.8 µM (inactive); with SK-MEL-5, 17.3 µM (inactive); with SNB-75, 19.6 µM (inactive); in the assay with NCI-H226, 18.3 µM (inactive); in the assay on SN12C, 13.4 µM (inactive). The GI50 in the assay with IGROV-1 is 28.8 µM (inactive); in the assay on SK-MEL-28, 28.3 µM (inactive); with Malme-3M it was 33.6 µM (inactive); with DU-145, 30.1 µM (inactive); in the assay with MDA-MB-231 it was 15.3 µM (inactive); in the assay with MCF7 it was 20.9 µM (inactive). Moreover, the GI50 with U-251 was 22.9 µM (inactive); in the assay on COLO 205, 14.6 µM (inactive); in the assay with RPMI-8226 it was 24.6 µM (inactive); with SR it was 28.6 µM (inactive); in the assay on K562, 30.4 µM (inactive); with SNB-19, 27 µM (inactive). Moreover, the GI50 in the assay with UACC-257 is 21.1 µM (inactive).
